Source: patent US7163689B2, “Intravenous valproate for acute treatment of migraine headache” (priority 1999, dated 2007)
“Also recorded” adds a separate entry of the source.

Legend:
[1] = test system: patients with prolonged moderate to severe migraine; experiment: Further expanded study (N=40): Depacon vs DHE preceded by metoclopramide, prolonged moderate to severe migraine (Example 3); type: in vivo, human; conditions: for Headache Severity (group value, four grade rating) / Number of Patients Who Reported Nausea / Number of Patients Who Reported Phonophobia / Number of Patients Who Reported Photophobia / Responder Rate / Symptom Free patients (no headache or associated symptomatology), % / Symptom Free patients (no headache or associated symptomatology), number: N = 20 per group
Description: This Example describes a further expanded study and analysis of the effectiveness of intravenous VPA for the treatment of acute migraine headache of significant duration. Patient data from the study described in Examples 1 and 2 have been incorporated and further analyzed in addition to new patient data. • Design and Methods. Participants (N=40) were from age 14 to 74 and were established patients of the Western New England Headache Clinic. Patients called to report the pressure of prolonged moderate to severe migraine. They had no evidence of conditions other than migraine to cause headache and were medically stable. […] Patients received a neurological and general physical examination and filled out a four grade baseline headache rating from developed by Western New England Headache Clinic (see Table 2). The patients then received either 500 mg Depacon™ over 15–30 minutes administered in 100 ccs D5W, or 1 mg DHE intramuscularly preceded by 10 mg metoclopramide intramuscularly. Headache severity and associated symptomatology were rated 1, 2, and 4 hours. Results. A total of 40 patients were randomized, 20 in the Depacon™ group and 20 in the DHE group. Table VII summarizes the number of patients in each group by severity of headache (moderate or severe), demographic data and medication assignment.

acute migraine headache = conditions: at 2 hours after administration; cited from earlier work

SMILES | % of Patients Who Reported Nausea ([1]; 1 hour) | % of Patients Who Reported Phonophobia ([1]; 1 hour) | % of Patients Who Reported Photophobia ([1]; 1 hour) | % of Patients Who Reported Nausea ([1]; 2 hours) | % of Patients Who Reported Phonophobia ([1]; 2 hours) | % of Patients Who Reported Photophobia ([1]; 2 hours) | % of Patients Who Reported Nausea ([1]; 4 hours) | % of Patients Who Reported Phonophobia ([1]; 4 hours) | % of Patients Who Reported Photophobia ([1]; 4 hours) | % of Patients Who Reported Nausea ([1]; Baseline) | % of Patients Who Reported Phonophobia ([1]; Baseline) | % of Patients Who Reported Photophobia ([1]; Baseline) | Headache Severity (group value, four grade rating) ([1]; 1 hour) | Number of Patients Who Reported Nausea ([1]; 1 hour) | Number of Patients Who Reported Phonophobia ([1]; 1 hour) | Number of Patients Who Reported Photophobia ([1]; 1 hour) | Responder Rate ([1]; 1 hour) | Headache Severity (group value, four grade rating) ([1]; 2 hours) | Number of Patients Who Reported Nausea ([1]; 2 hours) | Number of Patients Who Reported Phonophobia ([1]; 2 hours) | other results
CCCC(CCC)C(=O)[O-].[Na+] [Depacon, valproate sodium] | 53% | 74% | 70% | 53% | 58% | 50% | 47% | 53% | 45% | 75% | 95% | 100% | 1.8 | 8 | 14 | 14 | 50% | 1.5 | 8 | 11 | adverse events ([1]; 20 patients receiving 500 mg Depacon given during 15 to 30 minutes infusion, sodium): remarkably free of adverse event; also recorded: no adverse events; Number of Patients Who Reported Photophobia ([1]; 2 hours): 10; Responder Rate ([1]; 2 hours): 60%; Headache Severity (group value, four grade rating) ([1]; 4 hours): 1.4; Number of Patients Who Reported Nausea ([1]; 4 hours): 7; Number of Patients Who Reported Phonophobia ([1]; 4 hours): 10; Number of Patients Who Reported Photophobia ([1]; 4 hours): 9; Responder Rate ([1]; 4 hours): 60%; Headache Severity (group value, four grade rating) ([1]; Baseline): 2.7; Number of Patients Who Reported Nausea ([1]; Baseline): 15; Number of Patients Who Reported Phonophobia ([1]; Baseline): 19; Number of Patients Who Reported Photophobia ([1]; Baseline): 20; Symptom Free patients (no headache or associated symptomatology), % ([1]; at 1 hour): 10%; Symptom Free patients (no headache or associated symptomatology), number ([1]; at 1 hour): 2; Symptom Free patients (no headache or associated symptomatology), % ([1]; at 2 hours): 15%; Symptom Free patients (no headache or associated symptomatology), number ([1]; at 2 hours): 3; Symptom Free patients (no headache or associated symptomatology), % ([1]; at 4 hours): 25%; Symptom Free patients (no headache or associated symptomatology), number ([1]; at 4 hours): 5; response of associated symptomatology compared with the DHE group ([1]; baseline, 1, 2 and 4 hours, P>0.05): responded somewhat better, although not statistically significantly
CN1C[C@H](C(=O)N[C@]2(C)O[C@@]3(O)[C@@H]4CCCN4C(=O)[C@H](Cc4ccccc4)N3C2=O)C[C@@H]2c3cccc4[nH]cc(c34)C[C@H]21 [DHE, dihydroergotamine] | 42% | 67% | 75% | 50% | 67% | 65% | 50% | 61% | 55% | (60%) | 90% | 100% | 1.5 | 5 | 12 | 15 | 45% | 1.4 | 6 | 12 | Number of Patients Who Reported Photophobia ([1]; 2 hours): 13; Responder Rate ([1]; 2 hours): 50%; Headache Severity (group value, four grade rating) ([1]; 4 hours): 1.2; Number of Patients Who Reported Nausea ([1]; 4 hours): 6; Number of Patients Who Reported Phonophobia ([1]; 4 hours): 11; Number of Patients Who Reported Photophobia ([1]; 4 hours): 11; Responder Rate ([1]; 4 hours): 60%; Headache Severity (group value, four grade rating) ([1]; Baseline): 2.6; Number of Patients Who Reported Nausea ([1]; Baseline): DHE 12; Number of Patients Who Reported Phonophobia ([1]; Baseline): 18; Number of Patients Who Reported Photophobia ([1]; Baseline): 20; Symptom Free patients (no headache or associated symptomatology), % ([1]; at 1 hour): 15%; Symptom Free patients (no headache or associated symptomatology), number ([1]; at 1 hour): 3; Symptom Free patients (no headache or associated symptomatology), % ([1]; at 2 hours): 25%; Symptom Free patients (no headache or associated symptomatology), number ([1]; at 2 hours): 5; Symptom Free patients (no headache or associated symptomatology), % ([1]; at 4 hours): 30%; Symptom Free patients (no headache or associated symptomatology), number ([1]; at 4 hours): 6; subjects with good relief of acute migraine headache (acute migraine headache): 70–80%
